# From PubChem BioAssay AID179 (DTP/NCI, 2004)
# Calls of active or inactive are those of the source.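 The calls were made as follows: active = compounds giving half or more protection of infected cells from virus-caused growth loss, again on retest; inactive = the rest.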
# System: CEM cells HIV-1 protection, formazan growth assay
# Assay: NCI AIDS Antiviral Assay
# Conditions: for IC50: measured here: growth of uninfected CEM cells
# Method in brief: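 Five concentrations of each compound were applied to infected and uninfected human CEM cells. Protection from HIV-1 was judged from growth measured with a soluble formazan assay.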
SMILES,EC50,IC50,outcome
CC(C)(C)C1=NC(S)NC(CCC(=O)Nc2ccccc2[N+](=O)[O-])=C1 (stereo unspecified),> 692 µM,> 692 µM,
CC(O)C1=CCC2c3[nH]c4ccccc4c3CCN2C1 (stereo unspecified),> 23.4 µM,> 23.4 µM,
COc1ccccc1NC(=O)CC(=O)N/N=C/c1ccc(N(CCC#N)S(=O)(=O)c2ccccc2)cc1,> 182 µM,> 182 µM,
C[C@]12CCC3=NCCCN3C1=CC[C@@H]1[C@@H]2CC[C@@]2(C)[C@H]1CC[C@]2(C)O,> 47.9 µM,> 47.9 µM,
C[C@@H]1Cc2c(-c3cc(-c4cc(-c5c(O)cc(O)c6c5C[C@@H](C)N[C@@H]6C)c5ccccc5c4O)c(O)c4ccccc34)c(O)cc(O)c2[C@@H](C)N1,115 µM,> 200 µM,
COC(=O)C(/C(=N/N)C(=O)Nc1ccc(C)c(C)c1)c1nc2ccc(Cl)cc2[nH]c1=O (stereo unspecified),> 214 µM,135 µM,
OC(/C=C/c1ccccc1)Cc1nc2ccccc2[nH]1 (stereo unspecified),> 38 µM,> 38 µM,
COC(=O)[C@@H]1C=C[C@H](OC2OC(COC(C)=O)C(OC(C)=O)C(OC(C)=O)C2OC(C)=O)n2c(=O)n(-c3ccccc3)c(=O)n21 (stereo partly specified),> 200 µM,1.07 µM,
CCOc1cccc2sc(N)nc12,,,inactive
COc1ccc(NC(=S)c2ccoc2C)cc1CC(=O)OC(C)C,0.174 µM,1.51 µM,
Cc1cn(C2COC(C)(CO)O2)c(=O)[nH]c1=O (stereo unspecified),> 200 µM,> 200 µM,
NS(=O)(=O)c1ccc(NC(=S)/N=C\C(C(=O)c2ccccc2)=C(\O)c2ccccc2)cc1,> 200 µM,105 µM,
CCOC(=O)/C(=C\c1cccc(F)c1)[Se]c1ccccc1,> 38.9 µM,> 38.9 µM,
CNc1cc(C)ccc1S(=O)(=O)c1ccccc1[N+](=O)[O-],0.219 µM,30.2 µM,
c1ccc([P+](Cc2ccc(C[P+](c3ccccc3)(c3ccccc3)c3ccccc3)cc2)(c2ccccc2)c2ccccc2)cc1,17.4 µM,38 µM,
COc1ccc(/C=N/N=C(\N)NO)c(OC)c1OC,> 200 µM,> 200 µM,
CC(C)(C)OC(=O)NC12C3C4C1C1C2C3C41NC(=O)OC(C)(C)C (stereo unspecified),> 200 µM,53.7 µM,
O=C(Cc1ccccc1)NNc1nc(NNC(=O)c2ccncc2)nc(Nc2ccc([N+](=O)[O-])cc2)n1,> 100 µM,11.5 µM,
c1csc(-c2cc(-c3ccsc3)c(-c3ccsc3)s2)c1,> 200 µM,148 µM,
COc1ccc(C(O)c2ccc3c(c2)OCO3)cc1 (stereo unspecified),> 200 µM,162 µM,
Cc1c(C)c(C)c(-n2[nH]c(=O)n(C)c2=O)c(C)c1C,> 200 µM,> 200 µM,
CS/C(=C(\S)c1ccccc1)c1ccccc1,,,inactive

SMILES,EC50,IC50,outcome
CSc1cc(-c2ccccc2)s[s+]1 (tested in a mixture with another compound),> 200 µM,35.5 µM,
COC(=O)c1sc2c(SC#N)c3ccccn3c2c1C,,,inactive
CC1(C=O)C(=O)CCC2(C)C3CC(=O)OC3CCC12 (stereo unspecified),,,inactive
CN(CCO)c1nc(=O)c2c(n1C1OC(CO)C(O)C(O)C1O)CCCC2 (stereo unspecified),> 339 µM,> 339 µM,
O=C1CC(c2ccc([N+](=O)[O-])cc2)=Nc2ccccc2N1,> 200 µM,> 200 µM,
O=C(Nc1ccccc1)N1N=C(c2ccccc2)C1c1ccccc1 (stereo unspecified),> 200 µM,24.5 µM,
COc1cc2c(oc(=O)c3c4oc([Si](C)(C)C)cc4cc(OC)c23)c2cccc(O)c12,> 1.74 µM,> 1.74 µM,
COc1ccc(NC(=O)/C(=C/c2ccccc2)C(C)=O)cc1,> 123 µM,18.6 µM,
O=C1/C(=C/c2ccccc2)CCCC1CN1CCCCC1 (stereo unspecified),> 200 µM,0.676 µM,
Cc1cc2c(C(C)C)c(O)c(O)c(C=NC(C)c3ccccc3)c2c(O)c1-c1c(C)cc2c(C(C)C)c(O)c(O)c(C=NC(C)c3ccccc3)c2c1O (stereo unspecified),> 7.24 µM,> 7.24 µM,inactive
OC(c1ccccc1)C1CC2C=CC1C2 (stereo unspecified),,,inactive
COc1ccc(-c2c(C(C)=O)c(C)n(C3OC(CO)C(O)C(O)C3O)c(=S)c2C#N)cc1 (stereo unspecified),> 200 µM,58.9 µM,
O=C(O)C[n+]1ccccc1,148 µM,> 200 µM,
CCSc1nc(N)c2c(-c3ccccc3)c3c(nc2n1)CCC3,> 100 µM,> 100 µM,
COc1ccc(OC)c(/C=C2\CCc3ccccc3C2=O)c1,> 17.8 µM,2.88 µM,
Cc1c(O)c2ccccc2[nH]c1=O,> 200 µM,> 200 µM,
CCSCCCCCCCCCCC(=O)OCC1OC(n2cc(C)c(=O)[nH]c2=O)CC1F (stereo unspecified),0.0132 µM,0.2 µM,
Cc1cccc2c1C/C(=C1\CCc3c(C)cccc31)C2=O,,,inactive
O=C(CNC(=O)OCc1ccccc1)NCCCCC(NC(=O)OCc1ccccc1)C(=O)O (stereo unspecified),> 200 µM,> 200 µM,
O=C(Nc1nc2ncn(CCOC(=O)c3ccccc3)c2c(=O)[nH]1)c1ccccc1,> 85.1 µM,61.7 µM,
COc1ccc(/C=C/C(=O)c2cc(C(C)(C)C)c(O)c(C(C)(C)C)c2)cc1,> 10.2 µM,5.01 µM,
